From patent US7649007B2, “Oxazolidine derivatives as PR modulators” (Wyeth LLC, priority 2006, dated 2010)

Tests used:
[1] = target: T1, progesterone receptor (alkaline phosphatase activity in T47D cells) (Homo sapiens, UniProt P06401); test: Effects of progestins and antiprogestins on alkaline phosphatase activity in T47D cells (antagonist mode); format: cell-based; settings: in the presence of 1 nM progesterone; for IC50: 24 h
T1 construct: determining a compound's effect on alkaline phosphatase activity in T47D cells; endogenous in cells; host or cells: T47D cells
T1 sequence (P06401 1-933): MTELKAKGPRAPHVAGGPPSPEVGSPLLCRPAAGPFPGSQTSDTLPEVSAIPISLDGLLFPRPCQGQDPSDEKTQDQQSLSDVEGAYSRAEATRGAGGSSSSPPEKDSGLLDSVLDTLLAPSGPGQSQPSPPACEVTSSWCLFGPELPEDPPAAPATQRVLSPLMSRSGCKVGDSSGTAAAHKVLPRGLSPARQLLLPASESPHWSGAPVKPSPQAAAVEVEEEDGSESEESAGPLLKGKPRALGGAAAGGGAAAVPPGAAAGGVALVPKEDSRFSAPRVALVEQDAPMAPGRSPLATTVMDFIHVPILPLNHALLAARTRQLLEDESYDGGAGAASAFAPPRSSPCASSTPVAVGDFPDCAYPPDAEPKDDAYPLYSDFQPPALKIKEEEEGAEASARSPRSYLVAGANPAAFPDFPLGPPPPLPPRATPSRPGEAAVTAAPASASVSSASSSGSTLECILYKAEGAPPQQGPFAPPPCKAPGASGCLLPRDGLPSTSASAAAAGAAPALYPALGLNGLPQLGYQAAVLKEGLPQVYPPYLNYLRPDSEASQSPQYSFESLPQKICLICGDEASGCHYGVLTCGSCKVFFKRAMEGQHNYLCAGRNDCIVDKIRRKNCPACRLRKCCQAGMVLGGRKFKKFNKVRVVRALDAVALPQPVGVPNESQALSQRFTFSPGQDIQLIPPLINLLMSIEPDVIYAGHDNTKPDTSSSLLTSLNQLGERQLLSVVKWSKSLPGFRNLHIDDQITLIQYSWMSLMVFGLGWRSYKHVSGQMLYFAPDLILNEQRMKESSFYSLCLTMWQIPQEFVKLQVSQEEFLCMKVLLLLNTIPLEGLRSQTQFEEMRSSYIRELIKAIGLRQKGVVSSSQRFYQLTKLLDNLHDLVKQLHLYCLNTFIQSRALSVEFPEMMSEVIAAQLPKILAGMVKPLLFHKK
Experimental: (1) Effects of Progestins and Antiprogestins on Alkaline Phosphatase Activity in T47D Cells.
PURPOSE: To identify progestins or antiprogestins by determining a compound's effect on alkaline phosphatase activity in T47D cells.
Culture medium: • DMEM:F12 (1:1) (GIBCO, BRL) supplemented with 5% (v/v) charcoal stripped fetal bovine serum (not heat-inactivated), 100 U/mL penicillin, 100 μg/mL streptomycin, and 2 mM the GlutaMax™ reagent (GIBCO, BRL).
Alkaline phosphatase assay buffer: • I. 0.1M Tris-HCl, pH 9.8, containing 0.2% the Triton® X-100 reagent • II. 0.1M Tris-HCl, pH 9.8, containing 4 mM p-nitrophenyl phosphate (Sigma). B. Cell Culture and Treatment:
Frozen T47D cells were thawed in a 37° C. water bath and diluted to 280,000 cells/mL in culture medium. To each well in a 96-well plate (Falcon, Becton Dickinson Labware), 180 μL of diluted cell suspension was added.
Twenty μL of reference or test compounds diluted in the culture medium was then added to each well. When testing for progestin antagonist activity, reference antiprogestins or test compounds were added in the presence of 1 nM progesterone. The cells were incubated at 37° C. in a 5% CO2/humidified atmosphere for 24 h.
NOTE: For high throughput screening, one concentration of each compound was tested at 0.3 μg/mL. Based on an average molecular weight of 300 g/mol for the compounds in the library, the concentration was approximately 1 μM. Subsequently, active compounds were tested in dose response assays to determine EC50 and IC50. C. Alkaline Phosphatase Enzyme Assay:
At the end of treatment, the medium was removed from the plate. Fifty μL of assay buffer I was added to each well. The plates were shaken in a titer plate shaker for 15 min. Then 150 μL of assay buffer II was added to each well. Optical density measurements were taken at 5 min intervals for 30 min at a test wavelength of 405 nm.
For reference and test compounds, a dose response curve was generated for dose (X-axis) vs. the rate of enzyme reaction (slope) (Y-axis). Square root-transformed data was used for analysis of variance and nonlinear dose response curve fitting for both agonist and antagonist modes. Huber weighting was used to down-weight the effects of outliers. EC50 or IC50 values were calculated from the retransformed values. JMP software (SAS Institute, Inc.) was used for both one-way analysis of variance and non-linear dose response analysis in both single dose and dose response studies.
Progesterone and trimegestone were reference progestins and RU486 was the reference antiprogestin. All reference compounds were run in full dose response curves and the EC50 and IC50 values were calculated.

melting point [°C]	IC50 [1] [µM]	inhibition at 3 µM ([1]; at 3000 nM) [%]	Structure (SMILES)
158 to 161	0.0534		CC1(C)COC(=N)N1c1nc(-c2ccc(C#N)cc2)cs1 [Example 4, 4-[2-(2-imino-4,4-dimethyl-1,3-oxazolidin-3-yl)-1,3-thiazol-4-yl]benzonitrile]
181 to 183			CC1(C)COC(=O)N1c1nc(-c2cccc(C#N)c2)cs1 [Example 3, 3-[2-(4,4-dimethyl-2-oxo-1,3-oxazolidin-3-yl)-1,3-thiazol-4-yl]benzonitrile]
	0.0108		CC(=O)/N=C1\OCC(C)(C)N1c1nc(-c2ccc(C#N)cc2)cs1 [Example 7, N-{(2Z)-3-[4-(4-Cyanophenyl)-1,3-thiazol-2-yl]-4,4-dimethyl-1,3-oxazolidin-2-ylidene}acetamide]
	0.0644		CC1(C)CO/C(=N\C#N)N1c1nc(-c2ccc(C#N)cc2)cs1 [Example 5, {(2Z)-3-[4-(4-cyanophenyl)-1,3-thiazol-2-yl]-4,4-dimethyl-1,3-oxazolidin-2-ylidene}cyanamide]
		100	CC1(C)CO/C(=N\S(C)(=O)=O)N1c1nc(-c2ccc(C#N)cc2)cs1 [Example 6, N-{(2Z)-3-[4-(4-Cyanophenyl)-1,3-thiazol-2-yl]-4,4-dimethyl-1,3-oxazolidin-2-ylidene}methanesulfonamide]
197 to 199			C[C@@H]1COC(=O)N1c1nc(-c2ccc(Br)cc2)cs1 [Example 1, (4R)-3-[4-(4-Bromophenyl)-1,3-thiazol-2-yl]-4-methyl-1,3-oxazolidin-2-one]
145 to 147			CCC1(CC)COC(=O)N1c1nc(-c2ccc(C#N)cc2)cs1 [Example 2, 4-[2-(4,4-Diethyl-2-oxo-1,3-oxazolidin-3-yl)-1,3-thiazol-4-yl]benzonitrile]
